According to the CheMixHub viscosity set:

Experiment: xn = mol fraction of the nth substance listed

C=CC#N + CCO
viscosity [mPa·s], 101.33 kPa
Settings | x1 = 0.1008 | x1 = 0.1009 | x1 = 0.2017 | x1 = 0.3022 | x1 = 0.403 | x1 = 0.5025 | x1 = 0.6044 | x1 = 0.7032 | x1 = 0.8006 | x1 = 0.8993
298.15 K | – | 0.859 | 0.704 | 0.593 | 0.513 | 0.458 | 0.415 | 0.384 | 0.363 | 0.348
303.15 K | – | 0.787 | 0.648 | 0.551 | 0.48 | 0.431 | 0.392 | 0.364 | 0.345 | 0.332
308.15 K | 0.724 | – | 0.602 | 0.513 | 0.451 | 0.405 | 0.371 | 0.347 | 0.329 | 0.318

CC(=O)CC(C)=O + CS(C)=O
303.15 K, 101 kPa
Settings | viscosity [mPa·s]
x2 = 0.1118 | 0.819
x2 = 0.2207 | 0.9187
x2 = 0.3269 | 1.032
x2 = 0.4303 | 1.117
x2 = 0.5312 | 1.209
x2 = 0.6296 | 1.302
x2 = 0.7256 | 1.427

CN(C)c1ccccc1 + O=S1(=O)CCCC1
viscosity [mPa·s], 101 kPa
Settings | x1 = 0.1056 | x1 = 0.2173 | x1 = 0.2989 | x1 = 0.4055 | x1 = 0.5001 | x1 = 0.6087 | x1 = 0.6965 | x1 = 0.798 | x1 = 0.9131
303.15 K | 7.8 | 5.97 | 4.93 | 3.86 | 3.12 | 2.47 | 2.06 | 1.68 | 1.36
308.15 K | 6.92 | 5.33 | 4.44 | 3.51 | 2.85 | 2.26 | 1.89 | 1.55 | 1.26
313.15 K | 6.18 | 4.79 | 4.01 | 3.19 | 2.61 | 2.08 | 1.74 | 1.43 | 1.17

CCCCN(CCCC)CCCC + CCCCCCCC
viscosity [mPa·s], 101 kPa
Settings | x1 = 0.0983 | x1 = 0.1934 | x1 = 0.395 | x1 = 0.4909 | x1 = 0.5915 | x1 = 0.7854 | x1 = 0.897
303.15 K | 0.532 | 0.5833 | 0.7038 | 0.7674 | 0.838 | 0.9861 | 1.079
313.15 K | 0.4675 | 0.5129 | 0.6183 | 0.6727 | 0.734 | 0.8553 | 0.9291

CCCCN(CCCC)CCCC + CCCCCCCCCCO
viscosity [mPa·s], 101.3 kPa
Settings | x1 = 0.0952 | x1 = 0.1901 | x1 = 0.2866 | x1 = 0.3816 | x1 = 0.5195 | x1 = 0.6185 | x1 = 0.7198 | x1 = 0.8029 | x1 = 0.9006
303.15 K | 7.192 | 5.845 | 4.754 | 3.874 | 2.91 | 2.358 | 1.928 | 1.658 | 1.378
313.15 K | 5.659 | 4.596 | 3.721 | 3.026 | 2.288 | 1.892 | 1.586 | 1.388 | 1.175

C=CC#N + CC(=O)c1ccccc1
308.15 K, 101 kPa
Settings | viscosity [mPa·s]
x2 = 0.0582 | 0.3608
x2 = 0.1109 | 0.3946
x2 = 0.1957 | 0.4532
x2 = 0.2736 | 0.5132
x2 = 0.3939 | 0.62
x2 = 0.4591 | 0.676
x2 = 0.5681 | 0.7844
x2 = 0.6945 | 0.9222
x2 = 0.7954 | 1.052

[2H]O[2H] + [Br-].[K+]
viscosity [mPa·s], 101 kPa
Settings | x2 = 0.012 | x2 = 0.0375 | x2 = 0.056 | x2 = 0.067 | x2 = 0.073 | x2 = 0.081
298.15 K | 1.086 | 1.046 | 1.024 | 1.018 | 1.03 | 1.047
308.15 K | 0.854 | 0.856 | 0.853 | 0.85 | 0.868 | 0.884
318.15 K | 0.715 | 0.725 | 0.732 | 0.739 | 0.754 | 0.767
